Experimental data published in patent US20240408222A1, “COMPOUNDS, PHARMACEUTICAL COMPOSITIONS, AND METHODS FOR THE TREATMENT, PREVENTION, OR MANAGEMENT OF HYPERPRO[…]” (VINCERX PHARMA GMBH, priority 2021, published 2024).

What was measured:
HT29 [1] = assay: Cytotoxicity in vitro (MTT) in presence/absence of elastase; type: cell-based, human; conditions: 72 h
Experimental: (§1) Cultivation of cells was performed according to standard procedures with the media recommended by the provider. The cells, in a total volume of 100 μL, were seeded in a 96-well plate with a white bottom (#3610). After a 24 h incubation period at 37° C. and […], the medium was exchanged by adding 90 μL fresh medium. The treatment started by adding the test compound in 10 μL of culture medium to the cells in triplicates. Concentrations ranging from 10^−5 M to 10^−13 M were chosen. Two identically treated sets of samples were prepared. One set was treated with the test compound alone, whereas to the second set the compound and 10 nM elastase was added followed by a 72 h incubation period at 37° C. and […]. The proliferation was detected using the MTT assay (ATCC). At the end of the incubation period the MTT reagent was added to all samples for 4 h. Lysis of the cells followed by addition of the detergent was done overnight. The formed dye was detected at 570 nm. The proliferation of untreated but otherwise identically handled cells was define as the 100% value.

786-O [2] = assay: as above; type: cell-based, human; conditions: 72 h
Experimental: as §1

NCI H292 [3] = assay: as above; type: cell-based, human; conditions: 72 h
Experimental: as §1

HT29 [4] = assay: Cytotoxicity assay (Version 2, automated, AC50) with/without neutrophil elastase; type: cell-based, human; conditions: Version 2, activity concentration at −50%
Experimental: as §1
(§2) The cytotoxicity assay (Version 2) was performed as described above. Some changes were applied as the assays were performed in an automated fashion and the IC50 values determination was changed. Here the change in metabolic activity of the cells, in percent, was calculated by normalization of the measured values to the absorbance values of medium containing wells without cells (═−100%) and the absorbance of the DMSO-treated cells (═0%). AC50 values (activity concentration at −50%) were determined by means of a 4 parameter Hill-fit using GeneData Screener software.

786-O [5] = assay: as above; type: cell-based, human; conditions: Version 2, activity concentration at −50%
Experimental: as §1, §2

NCI H292 [6] = assay: as above; type: cell-based, human; conditions: Version 2, activity concentration at −50%
Experimental: as §1, §2

SUM149 [7] = assay: as above; type: cell-based; conditions: Version 2, activity concentration at −50%
Experimental: as §1, §2

SUM149 [8] = assay: Cytotoxicity in vitro (MTT) in presence/absence of elastase; type: cell-based; conditions: 72 h
Experimental: as §1

[9] = HT29, with (+) 10 nM neutrophil elastase
[10] = HT29, without (−) neutrophil elastase
[11] = with (+) 10 nM neutrophil elastase
[12] = without (−) neutrophil elastase
[13] = NCI H292, with (+) 10 nM neutrophil elastase
[14] = NCI H292, without (−) neutrophil elastase
[15] = HT29, with (+) neutrophil elastase
[16] = NCI H292, with (+) neutrophil elastase
[17] = SUM149, with (+) neutrophil elastase
[18] = SUM149, without (−) neutrophil elastase
[19] = SUM149, with (+) 10 nM neutrophil elastase

Row | SMILES | IC50 (HT29 [1]; [9]) | IC50 (HT29 [1]; [10]) | IC50 (786-O [2]; [11]) | IC50 (786-O [2]; [12]) | IC50 (NCI H292 [3]; [13]) | IC50 (NCI H292 [3]; [14]) | AC50 (HT29 [4]; [15]) | AC50 (HT29 [4]; [10]) | AC50 (786-O [5]; with (+) neutrophil elastase) | AC50 (786-O [5]; [12]) | AC50 (NCI H292 [6]; [16]) | AC50 (NCI H292 [6]; [14]) | AC50 (SUM149 [7]; [17]) | AC50 (SUM149 [7]; [18]) | IC50 (SUM149 [8]; [19]) | IC50 (SUM149 [8]; [18])
1 | CCCNC(=O)Nc1cccc(S(=O)(=O)Nc2cccc([C@H](CC(=O)O)NC(=O)Nc3ccc(NC(=O)NCCN(C)CCN(C)CCN(C)CC(=O)N[C@@H](CC(N)=O)C(=O)N4CCC[C@H]4C(=O)N[C@H](C(=O)N=[S@@](C)(=O)Cc4cc5cc(c4)OCCCCCNc4cc(ccc4F)-c4nc(ncc4F)N5)C(C)C)cc3)c2)c1 (relative stereo) [Compound 16] | ≤ 1 nM | > 100 nM | 1.1 to 10 nM | > 100 nM | ≤ 1 nM | 11 to 100 nM | ≤ 10 nM | > 1000 nM | 11 to 100 nM | > 1000 nM | 11 to 100 nM | 100 to 1000 nM | 11 to 100 nM | > 1000 nM | 1.1 to 10 nM | 11 to 100 nM
2 | CCCNC(=O)Nc1cccc(S(=O)(=O)Nc2cccc([C@@H](CC(=O)O)NC(=O)Nc3ccc(NC(=O)N(C)CCN(C)CCN(C)CC(=O)N[C@@H](CC(N)=O)C(=O)N4CCC[C@H]4C(=O)N[C@H](C(=O)N=[S@@](C)(=O)Cc4cc5cc(c4)OCCCCOc4cc(F)ccc4-c4nc(ncc4F)N5)C(C)C)cc3)c2)c1 [Compound 5, N-{2-[{2-[({4-[({(1R)-2-Carboxy-1-[3-({3-[(propylcarbamoyl)amino]benzene-1-sulfonyl}amino)phenyl]ethyl}carbamoyl)amino]phenyl}carbamoyl)(methyl)amino]ethyl} (methyl)amino]ethyl}-N-methylglycyl-L-asparaginyl-L-prolyl-N—[(S)-{[16,20-difluoro-2,3,4,5-tetrahydro-12H-13,17-(azeno)-11,7-(metheno)-1,6,12,14-benzodioxadiazacyclononadecin-9-yl]methyl}(methyl)oxo-lambda^6-sulfanylidene]-L-valinamide] | ≤ 1 nM | > 100 nM | ≤ 1 nM | > 100 nM | 1.1 to 10 nM | > 100 nM | 11 to 100 nM | > 1000 nM | 11 to 100 nM | > 1000 nM | 11 to 100 nM | 100 to 1000 nM | 11 to 100 nM | > 1000 nM | 1.1 to 10 nM | > 100 nM
3 | CCCNC(=O)Nc1cccc(S(=O)(=O)Nc2cccc([C@@H](CC(=O)O)NC(=O)Nc3ccc(NC(=O)NCCN(C)CCN(C)CCN(C)CC(=O)N[C@@H](CC(N)=O)C(=O)N4CCC[C@H]4C(=O)N[C@H](C(=O)N=[S@](C)(=O)Cc4cc5cc(c4)OCCCCCNc4cc(ccc4F)-c4nc(ncc4F)N5)C(C)C)cc3)c2)c1 (relative stereo) [Compound 17] | ≤ 1 nM | 11 to 100 nM | 1.1 to 10 nM | > 100 nM | ≤ 1 nM | 11 to 100 nM | ≤ 10 nM | > 1000 nM | ≤ 10 nM | 100 to 1000 nM | ≤ 10 nM | 100 to 1000 nM | ≤ 10 nM | 100 to 1000 nM | 1.1 to 10 nM | 11 to 100 nM
4 | CCCNC(=O)Nc1cccc(S(=O)(=O)Nc2cccc([C@@H](CC(=O)O)NC(=O)Nc3ccc(NC(=O)N(C)CCN(C)CCN(C)CC(=O)N[C@@H](CC(N)=O)C(=O)N4CCC[C@H]4C(=O)N[C@H](C(=O)N=S(C)(=O)Cc4cc5cc(c4)OC(C)CCOc4cc(F)ccc4-c4nc(ncc4F)N5)C(C)C)cc3)c2)c1 (relative stereo) [Compound 6] | ≤ 1 nM | > 100 nM |  |  | ≤ 1 nM | > 100 nM | ≤ 10 nM | ≤ 10 nM | ≤ 10 nM | ≤ 10 nM | ≤ 10 nM | 100 to 1000 nM | ≤ 10 nM | ≤ 10 nM | ≤ 1 nM | 11 to 100 nM
5 | CCCNC(=O)Nc1cccc(S(=O)(=O)Nc2cccc([C@@H](CC(=O)O)NC(=O)Nc3ccc(NC(=O)N(C)CCN(C)CCN(C)CC(=O)N[C@@H](CC(N)=O)C(=O)N4CCC[C@H]4C(=O)N[C@H](C(=O)N=[S@@](C)(=O)Cc4ccnc(Nc5cc(-c6ccc(F)cc6OC)c(F)cn5)c4)C(C)C)cc3)c2)c1 [Compound 4, N-{2-[{2-[({4-[({(1R)-2-Carboxy-1-[3-({3-[(propylcarbamoyl)amino]benzene-1-sulfonyl}amino)phenyl]ethyl}carbamoyl)amino]phenyl}carbamoyl)(methyl)amino]ethyl} (methyl)amino]ethyl}-N-methylglycyl-L-asparaginyl-L-prolyl-N—[(S)-[(2-{[5-fluoro-4-(4-fluoro-2-methoxyphenyl)pyridine-2-yl]amino}pyridin-4-yl)methyl](methyl)oxo-lambda^6-sulfanylidene]-L-valinamide] | 11 to 100 nM | > 100 nM | 11 to 100 nM | > 100 nM | 11 to 100 nM | > 100 nM | 100 to 1000 nM | > 1000 nM | 11 to 100 nM | > 1000 nM | > 1000 nM | > 1000 nM | 100 to 1000 nM | > 1000 nM | 11 to 100 nM | > 100 nM
6 | CCCNC(=O)Nc1cccc(S(=O)(=O)Nc2cccc([C@H](CC(=O)O)NC(=O)Nc3ccc(NC(=O)NCCOCCOCCOCCC(=O)NCCCC[C@H](NC(=O)CCOCCOCCOCCNC(=O)Nc4ccc(NC(=O)N[C@@H](CC(=O)O)c5cccc(NS(=O)(=O)c6cccc(NC(=O)NCCC)c6)c5)cc4)C(=O)NCCN(C)CCN(C)CCN(C)CC(=O)N[C@@H](CC(N)=O)C(=O)N4CCC[C@H]4C(=O)N[C@H](C(=O)N=[S@@](C)(=O)Cc4cc5cc(c4)O[C@@H](C)CCOc4cc(F)ccc4-c4nc(ncc4F)N5)C(C)C)cc3)c2)c1 (relative stereo) [Compound 29] |  |  |  |  |  |  | ≤ 10 nM | 100 to 1000 nM | ≤ 10 nM | > 1000 nM | ≤ 10 nM | 100 to 1000 nM | ≤ 10 nM | 100 to 1000 nM |  | 
7 | CCCNC(=O)Nc1cccc(S(=O)(=O)Nc2cccc([C@@H](CC(=O)O)NC(=O)Nc3ccc(NC(=O)NCCOCCOCCOCCC(=O)N[C@@H](CC(=O)O)C(=O)N4CCC[C@H]4C(=O)N[C@H](C(=O)N=[S@](C)(=O)Cc4cc5nc(c4)O[C@H](C)CCCCOc4cc(F)ccc4-c4cc(ncc4F)N5)C(C)C)cc3)c2)c1 (relative stereo) [Compound 56] |  |  |  |  |  |  | 11 to 100 nM | > 1000 nM | 11 to 100 nM | > 1000 nM | 11 to 100 nM | > 1000 nM | 11 to 100 nM | 100 to 1000 nM |  | 
8 | CCCNC(=O)Nc1cccc(S(=O)(=O)Nc2cccc([C@@H](CC(=O)O)NC(=O)Nc3ccc(NC(=O)NCCOCCOCCOCCC(=O)NCCCC[C@H](NC(=O)CCOCCOCCOCCNC(=O)Nc4ccc(NC(=O)N[C@H](CC(=O)O)c5cccc(NS(=O)(=O)c6cccc(NC(=O)NCCC)c6)c5)cc4)C(=O)NCCOCCOCCOCCC(=O)N[C@@H](CC(=O)O)C(=O)N4CCC[C@H]4C(=O)N[C@H](C(=O)N=[S@](C)(=O)Cc4cc5cc(c4)O[C@H](C)CCOc4cc(F)ccc4-c4nc(ncc4F)N5)C(C)C)cc3)c2)c1 (relative stereo) [Compound 31] |  |  |  |  |  |  | ≤ 10 nM | > 1000 nM | ≤ 10 nM | > 1000 nM | ≤ 10 nM | 100 to 1000 nM | ≤ 10 nM | 100 to 1000 nM |  | 
9 | CCCNC(=O)Nc1cccc(S(=O)(=O)Nc2cccc([C@@H](CC(=O)O)NC(=O)Nc3ccc(NC(=O)NCCOCCOCCOCCC(=O)N[C@@H](CC(=O)O)C(=O)N4CCC[C@H]4C(=O)N[C@H](C(=O)N=[S@@](C)(=O)Cc4cc5nc(c4)OCCCOc4cc(F)ccc4-c4cc(ncc4F)N5)C(C)C)cc3)c2)c1 (racemic) [Compound 37, N-(14-{4-[({(1R)-2-carboxy-1-[3-({3-[(propylcarbamoyl)amino]benzene-1-sulfonyl}amino)phenyl]ethyl}carbamoyl)amino]anilino}-14-oxo-4,7,10-trioxa-13-azatetradecanan-1-oyl)-L-alpha-aspartyl-L-prolyl-N—[(RS)—{[15,19-difluoro-3,4-dihydro-2H,11H-10,6-(azeno)-12,16-(metheno)-1,5,11,13-benzodioxadiazacyclooctadecin-8-yl]methyl}(methyl)oxo-lambda^6-sulfanylidene]-L-valinamide] |  |  |  |  |  |  | ≤ 10 nM | 100 to 1000 nM | ≤ 10 nM | 100 to 1000 nM | ≤ 10 nM | 100 to 1000 nM | ≤ 10 nM | 100 to 1000 nM |  | 
